Experimental data taken from patent publication US20250109127A1, “METHODS OF USE OF PHENOXYPROPYLAMINE COMPOUNDS TO TREAT DEPRESSION” (Minerva Neurosciences, Inc., priority 2013, published 2025).
Where “and” joins values, the source holds several entries; their conditions need not be identical. Equal entries are not always repeated. Structures can show the parent of a compound that is named as a salt.

Experiments:
5-HT1A = biological target: T1, 5-HT1A (Homo sapiens, UniProt P08908); assay: Receptor binding, 5-HT1A
T1 sequence (P08908 1-422): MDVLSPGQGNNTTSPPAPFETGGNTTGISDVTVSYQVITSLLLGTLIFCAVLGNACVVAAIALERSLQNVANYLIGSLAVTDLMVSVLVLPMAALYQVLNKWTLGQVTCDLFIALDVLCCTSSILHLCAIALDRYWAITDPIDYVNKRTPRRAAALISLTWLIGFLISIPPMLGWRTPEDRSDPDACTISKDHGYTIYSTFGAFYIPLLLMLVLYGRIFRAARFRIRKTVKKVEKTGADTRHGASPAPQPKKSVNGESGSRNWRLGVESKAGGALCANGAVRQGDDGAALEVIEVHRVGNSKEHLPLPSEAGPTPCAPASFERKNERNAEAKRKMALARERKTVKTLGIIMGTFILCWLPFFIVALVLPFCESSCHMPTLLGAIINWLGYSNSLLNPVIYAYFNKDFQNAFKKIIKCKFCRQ

[1] = test system: 5-HT release in the rat prefrontal cortex; assay: Microdialysis: 5-HT release in prefrontal cortex after I.P. administration; assay type: in vivo; details: for 5-HT (% of respective basal), individual animal: 0.1 mg/kg I.P., c2-c9 = R#13,14,20,19,25,26,31,32; for 5-HT (% of respective basal), individual animal / 5-HT release, individual animals: hydrochloride; for 5-HT release, MEAN / 5-HT release, individual animals: 0.3 mg/kg I.P.; for 5-HT release, MEAN: n = 8; for 5-HT release, individual animals: one column per animal R#11,12,18,23,29,30,17,24
Protocol: The aim of the study was to evaluate, using microdialysis, the effects of an intraperitoneal (I.P.) administration in rats of three different doses of SON-117 on dopamine and its metabolites, serotonin and its metabolite (5-HIAA), and norepinephrine levels in prefrontal cortex.
Thirty-two adult male Wistar rats were used for the whole study (4 groups of eight animals planned for the study, Table 1).
Surgery was performed on rats weighing about 300 g at the beginning of the experiments. Rats were anaesthetized with Ketamine (50 mg/kg) & Xylazine (15 mg/kg) by intramuscular administration. The animals were placed in a stereotaxic apparatus in the flat-skull position at a constant setting of −3.3 mm between ear bars and the incisor bar. The animals were treated with a local anesthesic (xylocaine 1%, Astra Zeneca) and an analgesic (Temgesic, from Schering Plough, 0.05 mg/kg, s.c.). A rostrocaudal midline incision was made with a lancet to expose the dorsal skull surface. The “stereotaxic zero” was defined by the Bregma in accordance with Paxinos and Watson's atlas (1986). A hole was drilled in the skull with a drill and the meninges were pierced with a sterile needle to implant a CMA12 guide cannula which later received the dialysis probe.
Coordinates used for implanting guide cannula in prefrontal cortex from Bregma were anteroposterior 3.7 mm, mediolateral 0.8 mm, and dorsoventral −2 mm (top of the probe was at −5 mm). The guide cannula was fixed to the skull with two stainless steel screws (1.88 mm outside diameter) anchored. An application of dental cement was added. A plastic collar allowed each animal to be tethered to a Swivel assembly of the CMA 120 awake animal system. Following surgery, rats were kept in individual cages and allowed to recover for a minimum of 3-5 days before the experimentation. The rats were handled and put in plastic bowl for 10 min at least every day to habituate the animals to their new environment for the dialysis. An I.P. administration with saline was also performed every day.
Dialysis probes (CMA12/3 mm, membrane, 20 kD cut-off, Carnegie Medicine, Stockholm, Sweden), were carefully washed before inserting into the guide cannula. The wash was performed with the artificial cerebrospinal fluid (aCSF) medium (NaCl 147 mM, KCl 2.7 mM, CaCl2 1.2 mM, MgCl2 0.85 mM) at room temperature. The dialysis system was then equilibrated at 20° C. at a perfusion rate of 1 μl/min with a Carnegie pump (CMA100). All catheters (FEP tubing, internal volume of 1.2 μl/10 cm, and tubing adaptors) used for microdialysis were treated in the same conditions.
The probes duly prepared were inserted into the guide cannula and the CMA120 Swivel assembly secured to the animal using a plastic collar. Flow through the dialysis probe with aCSF was maintained at a rate of 1 μl/min during the whole experimentation. The first four fractions (corresponding to 2 hours) were discarded to avoid the effects of parenchymal disturbance and to ensure that an approximate steady-state level was reached. Fractions were then collected over a period of 8.5 h during which time the animals remained quiet. The dialysates were automatically collected with an autosampler (microfraction collector CMA 140, Carnegie Medicin) and stored at −80° C. until analysis. […] Perfusion was then maintained for 7 hours with aCSF. The dialysates (30 μl) were collected into 300 μl vials, transferred into dry ice and then kept frozen (−80° C.) until analysis. Frozen samples were shipped to a partner for analysis. At the end of the microdialysis study, a PBS with colored ink was perfused through the probe in order to visualize the dialyzed area.
Catecholamine assay: Concentrations of dopamine, DOPAC, HVA, 5-HIAA, 5-HT, and norepinephrin were determined for each sample by HPLC coupled with electrochemical detection. […]

Structure (SMILES): Cc1nnc(-c2cc3c(OC[C@@H](O)CN4CCC(c5ccc(Cl)c(Cl)c5)CC4)cccc3o2)o1 [SON-117, (S)-1-(4-(3,4-dichlorophenyl)piperidino)-3-(2-(5-methyl-1,3,4-oxadiazol-2-yl)benzo(b)furan-4-yloxy)-2-propanol hydrochloride]
- affinity, 5-HT1A receptor binding (5-HT1A): high affinity
- 5-HT (% of respective basal), individual animal ([1]; T30-T1 h): 69.00 % of respective basal and 117.47 % of respective basal and 153.30 % of respective basal and 119.68 % of respective basal and 228.97 % of respective basal and 127.98 % of respective basal and 113.81 % of respective basal and 57.12 % of respective basal
- 5-HT (% of respective basal), individual animal ([1]; T1 h 30-T2 h): 92.30 % of respective basal and 410.73 % of respective basal and 162.34 % of respective basal and 123.16 % of respective basal and 77.29 % of respective basal and 149.14 % of respective basal and 262.61 % of respective basal and 62.56 % of respective basal
- 5-HT (% of respective basal), individual animal ([1]; T1 h-T1 h 30): 84.80 % of respective basal and 173.62 % of respective basal and 140.43 % of respective basal and 113.99 % of respective basal and 98.07 % of respective basal and 572.83 % of respective basal and 162.09 % of respective basal and 62.45 % of respective basal
- 5-HT (% of respective basal), individual animal ([1]; T2 h 30-T3 h): 51.79 % of respective basal and 182.3 % of respective basal and 109.29 % of respective basal and 102.05 % of respective basal and 101.27 % of respective basal and 528.93 % of respective basal and 86.68 % of respective basal and 564.06 % of respective basal
- 5-HT (% of respective basal), individual animal ([1]; T2 h-T2 h 30): 82.11 % of respective basal and 59.17 % of respective basal and 129.41 % of respective basal and 112.33 % of respective basal and 523.12 % of respective basal and 458.59 % of respective basal and 127.80 % of respective basal and 1473.07 % of respective basal
- 5-HT (% of respective basal), individual animal ([1]; T3 h 30-T4 h): 74.33 % of respective basal and 66.30 % of respective basal and 153.79 % of respective basal and 155.51 % of respective basal and 132.93 % of respective basal and 131.96 % of respective basal and 93.88 % of respective basal and 405.95 % of respective basal
- 5-HT (% of respective basal), individual animal ([1]; T3 h-T3 h 30): 72.21 % of respective basal and 249.58 % of respective basal and 128.14 % of respective basal and 138.05 % of respective basal and 139.82 % of respective basal and 122.70 % of respective basal and 103.66 % of respective basal and 298.06 % of respective basal
- 5-HT (% of respective basal), individual animal ([1]; T4 h 30-T5 h): 79.25 % of respective basal and 111.21 % of respective basal and 188.06 % of respective basal and 105.16 % of respective basal and 99.59 % of respective basal and 221.4 % of respective basal and 113.08 % of respective basal and 1455.86 % of respective basal
- 5-HT (% of respective basal), individual animal ([1]; T4 h-T4 h 30): 10.23 % of respective basal and 242.01 % of respective basal and 138.36 % of respective basal and 81.92 % of respective basal and 75.44 % of respective basal and 312.84 % of respective basal and 89.43 % of respective basal and 1851.01 % of respective basal
- 5-HT (% of respective basal), individual animal ([1]; T5 h 30-T6 h): 18.22 % of respective basal and 541.94 % of respective basal and 112.81 % of respective basal and 91.86 % of respective basal and 67.97 % of respective basal and 390.29 % of respective basal and 95.06 % of respective basal and 682.45 % of respective basal
- 5-HT (% of respective basal), individual animal ([1]; T5 h-T5 h 30): 106.82 % of respective basal and 610.15 % of respective basal and 166.13 % of respective basal and 112.99 % of respective basal and 48.55 % of respective basal and 433.73 % of respective basal and 103.27 % of respective basal and 900.33 % of respective basal
- 5-HT (% of respective basal), individual animal ([1]; T6 h 30-T7 h): 76.67 % of respective basal and 764.86 % of respective basal and 75.95 % of respective basal and 109.17 % of respective basal
- 5-HT (% of respective basal), individual animal ([1]; T6 h-T6 h 30): 98.17 % of respective basal and 780.23 % of respective basal and 117.32 % of respective basal and 105.66 % of respective basal and 44.34 % of respective basal and 387.64 % of respective basal and 93.11 % of respective basal and 410.53 % of respective basal
- 5-HT release, MEAN ([1]; T0-T30 min): 119.65 % of respective basal
- 5-HT release, MEAN ([1]; T30-T1 h): 111.24 % of respective basal
- 5-HT release, individual animals ([1]; T30-T1 h): 160.62 % of respective basal and 82.62 % of respective basal and 90.53 % of respective basal and 121.61 % of respective basal and 144.48 % of respective basal and 187.01 % of respective basal and 55.67 % of respective basal and 47.37 % of respective basal
- 5-HT release, MEAN ([1]; T1 h 30-T2 h): 114.14 % of respective basal
- 5-HT release, individual animals ([1]; T1 h 30-T2 h): 181.24 % of respective basal and 97.85 % of respective basal and 76.79 % of respective basal and 83.68 % of respective basal and 125.63 % of respective basal and 123.37 % of respective basal and 24.18 % of respective basal and 200.38 % of respective basal
- 5-HT release, MEAN ([1]; T1 h-T1 h 30): 144.23 % of respective basal
- 5-HT release, individual animals ([1]; T1 h-T1 h 30): 149.89 % of respective basal and 128.02 % of respective basal and 96.66 % of respective basal and 76.75 % of respective basal and 140.12 % of respective basal and 235.56 % of respective basal and 63.72 % of respective basal and 263.12 % of respective basal
- 5-HT release, MEAN ([1]; T2 h 30-T3 h): 126.37 % of respective basal
- 5-HT release, individual animals ([1]; T2 h 30-T3 h): 96.77 % of respective basal and 104.38 % of respective basal and 101.02 % of respective basal and 167.96 % of respective basal and 125.41 % of respective basal and 206.04 % of respective basal and 42.18 % of respective basal and 167.18 % of respective basal
- 5-HT release, MEAN ([1]; T2 h-T2 h 30): 106.16 % of respective basal
- 5-HT release, individual animals ([1]; T2 h-T2 h 30): 111.34 % of respective basal and 124.56 % of respective basal and 108.53 % of respective basal and 74.72 % of respective basal and 123.51 % of respective basal and 215.61 % of respective basal and 33.60 % of respective basal and 57.37 % of respective basal
- 5-HT release, MEAN ([1]; T3 h 30-T4 h): 133.06 % of respective basal
